Measurements reported in patent US20120156648A1, “APPARATUS AND METHOD FOR DELIVERING A THERAPEUTIC AGENT TO DENTAL TISSUE” (BUCKEYE DENTAL, LLC, priority 2010, published 2012).

Test: In vitro model of drug delivery: HP gel into extracted human teeth by MACROESIS vs diffusion, HP eluted into water measured by colorimetric kit / UV-Vis at 550 nm
Assay type: in vitro ADME
Conditions: for HP concentration in receiving medium (distilled water): below threshold of reliable detection, excluded from analysis
Method: MACROESIS™ drug delivery system uses an AC electrical field to push active pharmaceutical agents through biological membranes, such as peroxide gels into the layers of tooth enamel. Current methods of chair-side whitening involve applying a gel which is either self-activating, or activated by heat or UV. Another alternative involves custom trays containing the whitening agent obtained from a dentist used over a 7-10 day period at home (30 min to 2 hours per application). An in vitro model of drug delivery was used in a validity study investigating the delivery of a 35% Carbamide Peroxide gel into extracted human teeth by MACROESIS™.
Fourteen (14) freshly extracted human teeth without detectable caries or restoration were stored in distilled water at 4° C. and used within 1 month of extraction. Teeth were randomly assigned to the diffusion experimental group (6 teeth) or enhanced electrochemical delivery (MACROESIS™) experimental group (6 teeth). Two teeth were randomly assigned to a control group. The experiment was run in two rounds of six teeth each (3 from each treatment group) approximately two weeks apart to show repeatability of results.
The diffusion group received: 66±1 mg 6% HP gel applied evenly to the tooth surface for 20 minutes. The MACROESIS™ group received: 66±1 mg 6% HP gel applied evenly to the tooth surface for 20 minutes using the electrochemical drug delivery device and electrode (FIG. 5A-C). The control group contained one control tooth subjected to the diffusion treatment and one control tooth subjected to the MACROESIS™ treatment.
Following treatment, the teeth were rinsed twice in distilled water and dried. The outer surface of the teeth was covered with two layers of clear nail varnish to fill any defects. […]
The amount of H2O2 that diffused from the dentin was measured by a colorimetric oxidation-reduction reaction kit (HYDROGEN PEROXIDE CHEMets®, VACUettes® and Vacu-vials®, CHEMetrics, Inc., Calverton, Va.). HP concentration was measured by UV-Vis spectroscopy at 550 nm.

OO [HP, H2O2]
HP concentration in receiving medium (distilled water) (1-hour samples): < 0.1 PPM
HP concentration in receiving medium (distilled water) (48-hour samples): < 0.1 PPM
time in which the majority of the HP eluted from the teeth into the water (receiving medium removed at 1 hour, 24 hours and 48 hours): between 1 hour and 24 hours
